Data on 20 molecules can be found in patent US10287255B2, “Compounds as histone deacetylase 6 inhibitors and pharmaceutical compositions comprising the same” (CHONG KUN DANG PHARMACEUTICAL CORP., priority 2014, dated 2019).

For one assay, the target named is T1, human recombinant HDAC1 (Homo sapiens, UniProt Q13547).
T1 construct: purchased Enzo Life Science BML-SE456
Briefly: HDAC1 enzyme activity inhibition assay (in vitro, fluorimetric). The settings on record: human recombinant HDAC1, fluorimetric kit, 30° C. 60 minutes. The assay is classed as biochemical. Summed up:
(§1)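 IC50 values derive from fluorescence (Ex 360, Em 460) after developer treatment (30 min) of reactions of recombinant human HDAC1 or HDAC6 with 10 μM Fluor de Lys-SIRT1 substrate (60 min, 30 °C). Compounds were serially diluted 5-fold; 0.3 μg enzyme was used for HDAC1, with HDAC6 tested identically.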

In another assay the target is T2, human recombinant HDAC6 (Homo sapiens, UniProt Q9UBN7).
T2 construct: purchased Calbiochem 382180
T2 sequence (Q9UBN7 1-1215): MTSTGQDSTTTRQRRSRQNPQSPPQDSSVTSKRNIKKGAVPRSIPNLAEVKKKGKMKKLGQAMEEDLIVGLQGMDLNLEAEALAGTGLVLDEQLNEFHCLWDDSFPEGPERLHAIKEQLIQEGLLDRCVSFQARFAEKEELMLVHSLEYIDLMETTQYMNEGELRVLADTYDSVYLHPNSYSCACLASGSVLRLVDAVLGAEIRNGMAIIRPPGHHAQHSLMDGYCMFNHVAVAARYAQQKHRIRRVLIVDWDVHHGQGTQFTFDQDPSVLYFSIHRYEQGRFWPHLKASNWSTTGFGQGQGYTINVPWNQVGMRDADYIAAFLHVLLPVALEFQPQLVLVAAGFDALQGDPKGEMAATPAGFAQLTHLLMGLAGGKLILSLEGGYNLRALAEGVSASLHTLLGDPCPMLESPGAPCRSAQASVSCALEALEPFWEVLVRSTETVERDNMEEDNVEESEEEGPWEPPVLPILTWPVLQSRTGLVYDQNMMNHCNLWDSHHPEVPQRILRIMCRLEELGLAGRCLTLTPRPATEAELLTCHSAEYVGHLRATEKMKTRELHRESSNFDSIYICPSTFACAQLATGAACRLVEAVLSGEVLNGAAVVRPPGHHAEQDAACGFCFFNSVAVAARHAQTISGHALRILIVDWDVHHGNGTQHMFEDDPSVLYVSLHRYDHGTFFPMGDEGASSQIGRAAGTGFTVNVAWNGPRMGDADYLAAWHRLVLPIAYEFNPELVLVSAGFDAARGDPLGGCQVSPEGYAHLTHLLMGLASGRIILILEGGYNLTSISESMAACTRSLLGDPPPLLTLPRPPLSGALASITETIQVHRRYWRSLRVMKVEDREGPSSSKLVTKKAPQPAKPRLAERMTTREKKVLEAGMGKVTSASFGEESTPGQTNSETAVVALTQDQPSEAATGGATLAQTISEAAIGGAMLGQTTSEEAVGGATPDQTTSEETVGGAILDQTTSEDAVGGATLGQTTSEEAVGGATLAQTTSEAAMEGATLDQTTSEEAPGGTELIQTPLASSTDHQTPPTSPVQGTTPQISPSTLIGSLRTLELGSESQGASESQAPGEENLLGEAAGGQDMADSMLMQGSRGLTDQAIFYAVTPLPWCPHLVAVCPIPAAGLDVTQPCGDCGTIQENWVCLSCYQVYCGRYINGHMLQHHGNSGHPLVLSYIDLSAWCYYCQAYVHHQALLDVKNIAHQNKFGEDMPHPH
As to the kind of experiment: HDAC6 enzyme activity inhibition assay (in vitro, fluorimetric). The assay is classed as biochemical. The following applies: for HDAC6 selectivity (fold): HDAC6 selectivity over HDAC1; for IC50: human recombinant HDAC6, fluorimetric kit, same protocol as HDAC1. Put shortly:
as §1

SMILES strings stand for the structures. A value given as a limit tells only on which side of the number the result lay.

T1 sequence (Q13547 whole entry): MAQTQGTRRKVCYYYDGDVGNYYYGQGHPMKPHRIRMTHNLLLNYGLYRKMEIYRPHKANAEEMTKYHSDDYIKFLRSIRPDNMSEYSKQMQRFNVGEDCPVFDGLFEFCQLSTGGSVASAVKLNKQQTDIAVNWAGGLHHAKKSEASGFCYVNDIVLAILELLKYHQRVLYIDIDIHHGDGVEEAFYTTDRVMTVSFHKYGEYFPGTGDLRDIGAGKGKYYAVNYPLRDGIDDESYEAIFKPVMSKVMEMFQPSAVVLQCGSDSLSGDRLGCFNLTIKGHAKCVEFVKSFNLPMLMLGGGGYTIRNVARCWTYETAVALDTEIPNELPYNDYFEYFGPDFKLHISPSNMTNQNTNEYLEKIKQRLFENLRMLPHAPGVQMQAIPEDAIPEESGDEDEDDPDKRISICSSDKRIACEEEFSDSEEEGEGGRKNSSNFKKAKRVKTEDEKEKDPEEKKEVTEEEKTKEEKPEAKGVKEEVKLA

Turning to `C[C@@H]1CN(Cc2ccc(C(=O)NO)cc2)C[C@H](C)N1C(=O)Cc1cccc(C(F)(F)F)c1` [Compound 223, 4-(((3R,5S)-3,5-dimethyl-4-(2-(3-(trifluoromethyl)phenyl)acetyl)piperazin-1-yl)methyl)-N-hydroxybenzamide], the IC50 on human recombinant HDAC1 was 900 nM. In addition, on human recombinant HDAC6, the “HDAC6 selectivity (fold)” value is 8 fold and the IC50 was found to be 118 nM.

Take `C[C@@H]1CN(Cc2ccc(C(=O)NO)cc2)C[C@H](C)N1C(=O)c1ccccc1-c1cccnc1` [Compound 286, 4-(((3R,5S)-3,5-dimethyl-4-(2-(pyridin-3-yl)benzoyl)piperazin-1-yl)methyl)-N-hydroxybenzamide]: the IC50 at human recombinant HDAC1 is 13100 nM. Besides, at human recombinant HDAC6, the “HDAC6 selectivity (fold)” value amounted to 81 fold and the IC50 stood at 161 nM.

For the molecule `C[C@@H]1CN(Cc2ccc(C(=O)NO)cc2)C[C@H](C)N1Cc1cncnc1` [Compound 355, 4-(((3R,5S)-3,5-dimethyl-4-(pyrimidin-5-ylmethyl)piperazin-1-yl)methyl)-N-hydroxybenzamide], the IC50 at human recombinant HDAC1 stood at 21000 nM. On human recombinant HDAC6, the “HDAC6 selectivity (fold)” value worked out at 20 fold and the IC50 was 1060 nM.

For the molecule `C[C@@H]1CN(Cc2ccc(-n3ccnc3)cc2)C[C@H](C)N1Cc1ccc(C(=O)NO)cc1` [Compound 301, 4-(((2S,6R)-4-(4-(1H-imidazol-1-yl)benzyl)-2,6-dimethylpiperazin-1-yl)methyl)-N-hydroxybenzamide], the IC50 on human recombinant HDAC1 was determined as 2800 nM; at human recombinant HDAC6 it was 253 nM. For the same molecule, the “HDAC6 selectivity (fold)” value at human recombinant HDAC6 turned out to be 11 fold.

As to `C[C@@H]1CN(Cc2ccccc2-c2ccncc2)C[C@H](C)N1Cc1ccc(C(=O)NO)cc1` [Compound 350, 4-(((2S,6R)-2,6-dimethyl-4-(2-(pyridin-4-yl)benzyl)piperazin-1-yl)methyl)-N-hydroxybenzamide], the IC50 came to 3300 nM on human recombinant HDAC1 and 194 nM at human recombinant HDAC6. Further, on human recombinant HDAC6, the “HDAC6 selectivity (fold)” value is on record as 17 fold.

With `C[C@@H]1CN(C(=O)Nc2ccc3c(ccn3C)c2)C[C@H](C)N1Cc1ccc(C(=O)NO)cc1` [Compound 185, (3R,5S)-4-(4-(hydroxycarbamoyl)benzyl)-3,5-dimethyl-N-(1-methyl-1 H -indol-5-yl)piperazine-1-carboxamide], on human recombinant HDAC1, the IC50 came to 800 nM. On human recombinant HDAC6, the “HDAC6 selectivity (fold)” value is on record as 3 fold and the half-inhibitory concentration (IC50) was 249 nM.

For `C[C@@H]1CN(C(=O)c2cccc(CN3CCCC3)c2)C[C@H](C)N1Cc1ccc(/C=C/C(=O)NO)cc1` [Compound 480, (E)-3-(4-(((2S,6R)-2,6-dimethyl-4-(3-(pyrrolidin-1-ylmethyl)benzoyl)piperazin-1-yl)methyl)phenyl)-N-hydroxyacrylamide], the 50% inhibitory concentration (IC50) on human recombinant HDAC1 was found to be 1000 nM. Also, at human recombinant HDAC6, the “HDAC6 selectivity (fold)” value stood at 2 fold and the IC50 came to 467 nM.

For `C[C@@H]1CN(Cc2ccc(C(=O)NO)cc2)C[C@H](C)N1C(=O)c1ccc(CN2CCCCC2)cc1` [Compound 459, 4-(((3R,5S)-3,5-dimethyl-4-(4-(piperidin-1-ylmethyl)benzoyl)piperazin-1-yl)methyl)-N-hydroxybenzamide], the 50% inhibitory concentration (IC50) on human recombinant HDAC1 was determined as 3800 nM; at human recombinant HDAC6 it was 149 nM. Moreover, at human recombinant HDAC6, the “HDAC6 selectivity (fold)” value is given as 25 fold.

Take `Cc1ccccc1NC(=O)N1C[C@@H](C)N(Cc2ccc(C(=O)NO)cc2)[C@@H](C)C1` [Compound 166, (3R,5S)-4-(4-(hydroxycarbamoyl)benzyl)-3,5-dimethyl-N-o-tolylpiperazine-1-carboxamide]: the concentration for half-maximal inhibition (IC50) at human recombinant HDAC1 is 4300 nM; on human recombinant HDAC6, 452 nM. Moreover, on human recombinant HDAC6, the “HDAC6 selectivity (fold)” value is 10 fold.

For `C[C@@H]1CN(Cc2ccc(C(=O)NO)cc2)C[C@H](C)N1C(=O)c1cccc(-c2ccncc2)c1` [Compound 245, 4-(((3R,5S)-3,5-dimethyl-4-(3-(pyridin-4-yl)benzoyl)piperazin-1-yl)methyl)-N-hydroxybenzamide], at human recombinant HDAC1, the IC50 worked out at 3600 nM. At human recombinant HDAC6, the “HDAC6 selectivity (fold)” value worked out at 31 fold and the IC50 stood at 116 nM.

As for `C[C@@H]1CN(Cc2ccc(C(=O)NO)cc2)C[C@H](C)N1C(=O)c1ccco1` [Compound 125, 4-(((3R,5S)-4-(furan-2-carbonyl)-3,5-dimethylpiperazin-1-yl)methyl)-N-hydroxybenzamide], the IC50 on human recombinant HDAC1 is more than 10000 nM; on human recombinant HDAC6, 3 nM. The “HDAC6 selectivity (fold)” value on human recombinant HDAC6 is recorded as more than 3333 fold.

As for `C[C@@H]1CN(Cc2ccc(C(=O)NO)cc2)C[C@H](C)N1C(=O)Oc1ccccc1` [Compound 177, phenyl(2S,6R)-4-(4-(hydroxycarbamoyl)benzyl)-2,6-dimethylpiperazine-1-carboxylate], the IC50 at human recombinant HDAC1 was 5800 nM. On human recombinant HDAC6, the “HDAC6 selectivity (fold)” value came to 186 fold and the IC50 worked out at 31 nM.

`C[C@@H]1CN(Cc2ccc(C(=O)NO)cc2)C[C@@H](C)N1C(=O)c1ccco1` [Compound 249, 4-(((3R,5R)-4-(furan-2-carbonyl)-3,5-dimethylpiperazin-1-yl)methyl)-N-hydroxybenzamide]: the IC50 at human recombinant HDAC1 was 15600 nM. At human recombinant HDAC6, the “HDAC6 selectivity (fold)” value is 130 fold and the IC50 was determined as 120 nM.

For the molecule `C[C@@H]1CN(Cc2ccc(C(=O)NO)cc2)C[C@H](C)N1C(=O)c1ccccc1-c1ccoc1` [Compound 284, 4-(((3R,5S)-4-(2-(furan-3-yl)benzoyl)-3,5-dimethylpiperazin-1-yl)methyl)-N-hydroxybenzamide], the IC50 on human recombinant HDAC1 was determined as 5700 nM; on human recombinant HDAC6 it was 68 nM. Further, on human recombinant HDAC6, the “HDAC6 selectivity (fold)” value was found to be 84 fold.

As for `C[C@@H]1CN(Cc2cccc(-c3ccoc3)c2)C[C@H](C)N1Cc1ccc(C(=O)NO)cc1` [Compound 396, 4-(((2S,6R)-4-(3-(furan-3-yl)benzyl)-2,6-dimethylpiperazin-1-yl)methyl)-N-hydroxybenzamide], the IC50 at human recombinant HDAC1 is 1700 nM. At human recombinant HDAC6, the “HDAC6 selectivity (fold)” value is given as 4 fold and the IC50 came to 406 nM.

Regarding `C[C@@H]1CN(Cc2ccccc2-c2ccoc2)C[C@H](C)N1Cc1ccc(C(=O)NO)cc1` [Compound 348, 4-(((2S,6R)-4-(2-(furan-3-yl)benzyl)-2,6-dimethylpiperazin-1-yl)methyl)-N-hydroxybenzamide], on human recombinant HDAC1, the IC50 is 4700 nM. Also, on human recombinant HDAC6, the “HDAC6 selectivity (fold)” value amounted to 6 fold and the IC50 worked out at 843 nM.

For the molecule `C[C@@H]1CN(C(=O)c2ccccn2)C[C@H](C)N1Cc1ccc(C(=O)NO)cc1` [Compound 111, 4-(((2S,6R)-2,6-dimethyl-4-picolinoylpiperazin-1-yl)methyl)-N-hydroxybenzamide], the IC50 on human recombinant HDAC1 was more than 10000 nM. Also, at human recombinant HDAC6, the “HDAC6 selectivity (fold)” value is listed as more than 22 fold and the IC50 came out at 461 nM.

Regarding `CC(C)NC(=O)N1[C@H](C)CN(Cc2ccc(C(=O)NO)cc2)C[C@@H]1C` [Compound 098, (2S,6R)-4-(4-(hydroxycarbamoyl)benzyl)-N-isopropyl-2,6-dimethylpiperazine-1-carboxamide], the half-inhibitory concentration (IC50) at human recombinant HDAC1 is more than 10000 nM. For the same molecule, at human recombinant HDAC6, the “HDAC6 selectivity (fold)” value is more than 133 fold and the concentration for half-maximal inhibition (IC50) stood at 75 nM.

Regarding `C[C@@H]1CN(Cc2ccc(C(=O)NO)cc2)C[C@H](C)N1Cc1ccccc1CN1CCOCC1` [Compound 457, 4-(((3R,5S)-3,5-dimethyl-4-(2-(morpholinomethyl)benzyl)piperazin-1-yl)methyl)-N-hydroxybenzamide], the IC50 on human recombinant HDAC1 turned out to be 300 nM; at human recombinant HDAC6, 146 nM. In addition, on human recombinant HDAC6, the “HDAC6 selectivity (fold)” value is listed as 2 fold.

Take `C[C@@H]1CN(Cc2ccc(C(=O)NO)cc2)C[C@H](C)N1C(=O)c1cccc(CN2CCN(CC(F)(F)F)CC2)c1` [Compound 443, 4-(((3R,5S)-3,5-dimethyl-4-(3-((4-(2,2,2-trifluoroethyl)piperazin-1-yl)methyl)benzoyl)piperazin-1-yl)methyl)-N-hydroxybenzamide]: the IC50 stood at 9600 nM at human recombinant HDAC1 and 141 nM on human recombinant HDAC6. In addition, the “HDAC6 selectivity (fold)” value at human recombinant HDAC6 is 68 fold.
